In paper PMC10945337 (Theranostics, 2024):
Where two headings read alike, the source gives them in different places.

Assays:
[1] = cited from earlier work
[2] = Whole-body planar and SPECT/CT imaging-based dosimetry of normal organs (kidneys, liver, parotid and submandibular glands); format: in vivo, human
[3] = test system: metastases; details: cited from earlier work
[4] = test system: tumor lesions (bone metastases or lymph node metastases); assay: Whole-body planar and SPECT/CT imaging-based dosimetry of tumor lesions; format: in vivo, human; details: n = 17 tumor lesions
[5] = kidneys, mean ± SD, 6 mCRPC patients
[6] = liver, mean ± SD, 6 mCRPC patients
[7] = parotid gland, mean ± SD, 6 mCRPC patients
[8] = submandibular gland, mean ± SD, 6 mCRPC patients
[9] = bone metastases, ref Violet et al. [52]
[10] = lymph node metastases, ref Violet et al. [52]
[11] = all metastases, ref Okamoto et al. [53]

[^177Lu]Lu-PSMA-617
Patients with grade 1 / 2 xerostomia ([1]; REALITY study, ref [16]): 20.9%
Patients with grade 1 / 2 xerostomia ([1]; VISION study, ref [10]): 38.8%
A (% injected A0), monoexponential curve-fitting parameter [2, 5]: 4.80 ± 1.94 % injected A0
Absorbed dose [2, 5]: 0.545 ± 0.231 mGy/MBq
Mean absorbed dose [2, 5]: 0.545 ± 0.231 Gy/GBq
TIAC (time-integrated activity coefficient) [2, 5]: 1.59 ± 0.68 h
λ, monoexponential curve-fitting parameter [2, 5]: 0.028 ± 0.011 h⁻¹
A (% injected A0), monoexponential curve-fitting parameter [2, 6]: 2.28 ± 0.88 % injected A0
Absorbed dose [2, 6]: 0.103 ± 0.057 mGy/MBq
TIAC (time-integrated activity coefficient) [2, 6]: 1.65 ± 1.36 h
λ, monoexponential curve-fitting parameter [2, 6]: 0.030 ± 0.009 h⁻¹
A (% injected A0), monoexponential curve-fitting parameter [2, 7]: 0.53 ± 0.20 % injected A0
Absorbed dose [2, 7]: 0.333 ± 0.194 mGy/MBq
TIAC (time-integrated activity coefficient) [2, 7]: 0.13 ± 0.09 h
λ, monoexponential curve-fitting parameter [2, 7]: 0.031 ± 0.005 h⁻¹
Individual absorbed dose ([2]; patient 1 (pre-treatment N, C, L, R), kidneys): 0.666 mGy/MBq
Individual absorbed dose ([2]; patient 1 (pre-treatment N, C, L, R), liver): 0.199 mGy/MBq
Individual absorbed dose ([2]; patient 1 (pre-treatment N, C, L, R), parotid gland): 0.398 mGy/MBq
Individual absorbed dose ([2]; patient 1 (pre-treatment N, C, L, R), submandibular gland): 0.309 mGy/MBq
Individual absorbed dose ([2]; patient 2 (pre-treatment N, C, L, A, R), kidneys): 0.492 mGy/MBq
Individual absorbed dose ([2]; patient 2 (pre-treatment N, C, L, A, R), liver): 0.138 mGy/MBq
Individual absorbed dose ([2]; patient 2 (pre-treatment N, C, L, A, R), parotid gland): 0.150 mGy/MBq
Individual absorbed dose ([2]; patient 2 (pre-treatment N, C, L, A, R), submandibular gland): 0.190 mGy/MBq
Individual absorbed dose ([2]; patient 3 (pre-treatment N, C, L, A, R), kidneys): 0.906 mGy/MBq
Individual absorbed dose ([2]; patient 3 (pre-treatment N, C, L, A, R), liver): 0.069 mGy/MBq
Individual absorbed dose ([2]; patient 3 (pre-treatment N, C, L, A, R), parotid gland): 0.146 mGy/MBq
Individual absorbed dose ([2]; patient 3 (pre-treatment N, C, L, A, R), submandibular gland): 0.112 mGy/MBq
Individual absorbed dose ([2]; patient 4 (pre-treatment N, C, L, A, R), kidneys): 0.674 mGy/MBq
Individual absorbed dose ([2]; patient 4 (pre-treatment N, C, L, A, R), liver): 0.125 mGy/MBq
Individual absorbed dose ([2]; patient 4 (pre-treatment N, C, L, A, R), parotid gland): 0.703 mGy/MBq
Individual absorbed dose ([2]; patient 4 (pre-treatment N, C, L, A, R), submandibular gland): 0.664 mGy/MBq
Individual absorbed dose ([2]; patient 5 (pre-treatment N, C, L), kidneys): 0.252 mGy/MBq
Individual absorbed dose ([2]; patient 5 (pre-treatment N, C, L), liver): 0.037 mGy/MBq
Individual absorbed dose ([2]; patient 5 (pre-treatment N, C, L), parotid gland): 0.217 mGy/MBq
Individual absorbed dose ([2]; patient 5 (pre-treatment N, C, L), submandibular gland): 0.178 mGy/MBq
Individual absorbed dose ([2]; patient 6 (pre-treatment N, C, L, A), kidneys): 0.278 mGy/MBq
Individual absorbed dose ([2]; patient 6 (pre-treatment N, C, L, A), liver): 0.049 mGy/MBq
Individual absorbed dose ([2]; patient 6 (pre-treatment N, C, L, A), parotid gland): 0.387 mGy/MBq
Individual absorbed dose ([2]; patient 6 (pre-treatment N, C, L, A), submandibular gland): 0.259 mGy/MBq
A (% injected A0), monoexponential curve-fitting parameter [2, 8]: 0.41 ± 0.26 % injected A0
Absorbed dose [2, 8]: 0.285 ± 0.180 mGy/MBq
TIAC (time-integrated activity coefficient) [2, 8]: 0.06 ± 0.05 h
λ, monoexponential curve-fitting parameter [2, 8]: 0.030 ± 0.007 h⁻¹
Absorbed dose, range [3, 9]: 0.41-10.71 Gy/GBq
Mean absorbed dose [3, 9]: 5.28 Gy/GBq
Absorbed dose, range [3, 10]: 0.52-16.23 Gy/GBq
Mean absorbed dose [3, 10]: 3.91 Gy/GBq
Absorbed dose of the tumor lesions, range ([4]; 6 mCRPC patients): 0.42 - 12.91 Gy/GBq
Mean absorbed dose of the tumor lesions ([4]; 6 mCRPC patients, mean ± SD): 2.59 ± 3.30 Gy/GBq
Effective half-life in tumor lesions (mean) ([4]; mean ± SD): 35.3 ± 6.3 h

O=C([O-])CC[C@H](NC(=O)N[C@@H](CCCCNC(=O)CCCCCCC(=O)NCCCC[C@@H](NC(=O)[C@@H](Cc1ccccc1)NC(=O)[C@@H](Cc1ccc(O)c(I)c1)NC(=O)CC[C@H](C(=O)[O-])N1CCN(CC(=O)[O-])CCN(CC(=O)[O-])CCN(CC(=O)[O-])CC1)C(=O)[O-])C(=O)[O-])C(=O)[O-].[177Lu+3].[H+].[H+].[H+].[H+].[H+] [[^177Lu]Lu-PSMA I&T]
Absorbed dose, range [3, 11]: 0.22 - 12.03 Gy/GBq
Mean absorbed dose [3, 11]: 3.2 ± 2.6 Gy/GBq
